Data reported in patent US4329347A, “Cardiotonic and antithrombotic sulfur-containing derivatives of carbostyril” (Boehringer Ingelheim GmbH, priority 1978, dated 1982).
Read-outs that look alike come from different tables or passages of the source.

Experiments:
[1] = tested on: Walker-256 carcinosarcoma cells; test: Effect on tumor cell embolism: mortality after injection of Walker-256 carcinosarcoma cells in mice; assay type: in vivo
Protocol: (a) Mice having a body weight of about 25 grams received an injection in the jugular vein of a million Walker-256 carcinosarcoma cells. These tumor cells lead to a formation of thrombocyte clumps, which causes a fatal tumor cell embolism in a portion of the animals. Under the influence of the test compounds, the number of deceased animals can be reduced. Normally, about 65% of the control animals died within 10 minutes as a result of pulmonary embolism.

[2] = tested on: thrombocytes (number in the blood after tumor cell injection); test: Effect on tumor cell embolism: thrombocyte decrease after intravenous tumor cell injection in rats; assay type: in vivo; conditions: control 70
Text: (b) By virtue of the injection of tumor cells, a strong decrease in the number of thrombocytes in the blood was produced in the test animals (rats) as a consequence of thrombocyte and tumor cell thrombocyte aggregation. […] By administration of suitable substances, the extent of the thrombocyte decrease can be reduced as compared to that of the untreated control animals.

conscious mice = test: Prolongation of the bleeding time (mouse tail); assay type: in vivo; conditions: po, 10 mg/kg orally, after 1 hour, compared to control group, read-out: Prolongation of the bleeding time in % after one hour
Protocol: The function of the thrombocytes can be determined by measuring the bleeding time. The normal bleeding time in human beings is in the range of 1 to 3 minutes and needs intact thrombozytes in a sufficient number. If the number of thrombocytes is normal and the bleeding time is prolonged, this signifies a disturbed function of the thrombocytes. This is found in some congenital defects of thrombocyte function (V. Willebrand's disease, for example). If, on the other hand it is the aim to prevent spontaneous aggregation of the thrombocytes and occlusion in the arterial system by antithrombotic drugs, the bleeding time should be prolonged as a consequence. Therefore, using antithrombotic substances, a prolongation of the bleeding time is expected. If the plasma coagulation system is not influenced by such a medicine, coagulation tests will give a normal result.
To measure the bleeding time, 10 mg/kg of the test compound is administered orally to conscious mice. After 1 hour, 0.5 mm of the tip of the mousetail is cut off and droplets of blood are gently removed with filter paper every 30 second. The number of drops of blood give a measure for the bleeding time (5 animals/experiment).
The numbers in the following table represent the prolongation in % compared to the control group.

auricles (rat heart) = test: Positive inotropic activity on isolated rat auricles; design: species or system rats; conditions: 1×10^-5 gm/ml, 30° C., from the starting values, read-out: % Increase in Force of Contraction
Protocol: Rats were anesthetized with ether and subsequently killed by a blow on the neck. After opening the thorax, the heart was removed and both auricles were separated. The auricles were put into an organ bath of 100 ml containing a tyrode solution at a temperature of 30° C. The tyrode solution was infused with carbogen (95% of O2 and 5% of CO2). The spontaneous contractions of the auricles were registered isometrically. The auricles were weighted with 1 gm. The compounds in question were tested on 4 auricles each at 1×10^-5 gm/ml. The alteration of the contraction force was registered in % from the starting values.

[3] = tested on: thrombocyte aggregation in platelet-rich plasma of healthy human donors; test: Thrombocyte aggregation inhibiting activity by the method of Born and Cross (platelet-rich plasma); assay type: cell-based; conditions: optical density
Protocol: 1. Determination of the thrombocyte aggregation inhibiting activity by the method of Born and Cross [J. Physiol. 170, 397 (1964)]:
The thrombocyte aggregation was measured in the platelet-rich plasma of healthy human donors. The decrease in optical density was measured and recorded photometrically after the addition of adenosine diphosphate or collagen. From the angle of inclination of the density curve, the rate of aggregation was estimated (Vmax). The optical density was taken as the point on the curve where the most light was transmitted (O.D.).
The EC50 values in the tables indicate the optical density.
Small doses of collagen were chosen, but sufficient to give irreversible aggregation. To provoke maximum aggregation, about 0.01 ml of the collagen solution was added to 1 ml of platelet-rich plasma. (Commercial collagen of Hormonchemie, Munich). The adenosine diphosphate (ADP) doses were chosen to give only the first phase of the BORN curve. The necessary amount of ADP was about 1×10^-6 mol/l. Commercial ADP of Boehringer Mannheim was used.
The substance dose which produced a 50% inhibition of the thrombozytes aggregation (EC50) was determined graphically.

[4] = tested on: phosphodiesterase (PDE), supernatant of human blood platelets; test: PDE inhibition (3H-cAMP hydrolysis); assay type: biochemical; conditions: human blood platelet PDE, 1 μmol/liter 3H-cAMP, pH 7.4, 15 minutes, 37° C.
Protocol: cAMP is hydrolysed to AMP by phosphodiesterase (PDE) from various sources, including blood platelets. This hydrolysis is inhibited by PDE inhibitors according to the concentration.
The phosphodiesterase used was the 10,000×g supernatant of human blood platelets which had been frozen with water and thawed out again.
An amount of 0.3 ml of a mixture which contained 0.1 mole/liter of trihydroxy-aminomethane (pH 7.4), 3 mmole/liter of magnesium chloride, 1 mmole/liter of AMP, 1 μmol/liter of ^3 H-cAMP (specific activity about 10 MBq/μmol), PDE as well as the substance to be tested and water for the control were incubated for 15 minutes at 37° C.
The incubation was stopped by the addition of 0.5 ml of zinc sulfate (0.266 mole/liter) and 0.5 ml of barium hydroxide (0.266 mole/liter), the precipitate was centrifuged and the activity remaining in the supernatant of the unreacted ^3 H-cAMP was determined. From a comparison of the substance preparations and the control preparations, the concentration for a 50% inhibiting activity (IC50) of the respective substance was calculated.

mice = test: Acute toxicity, oral; assay type: in vivo; conditions: single oral dose of 1,000 mg/kg, 14 days observation
Protocol: (§1) The acute toxicity of the test compounds was determined on groups of 10 mice each after oral administration of a single dose of 1,000 mg/kg (observation time: 14 days).

Acute toxicity, oral = assay type: in vivo; conditions: mouse, in vivo; mice, single oral dose, 14 days observation; read-out: Acute Toxicity per os
Protocol: as §1

[5] = tested on: Platelet Thromboses in the Rat; test: Influence on platelet thromboses in the rat (electrical irritation of a vein); assay type: in vivo; conditions: male rats, five animals per dose, 20 minutes observation, vs. untreated group; dose not given
Protocol: Literature: H. Poliwoda, J. Lilli, G. Hagemann, D. Schyma: Z. ges. exp. Med., 145, 252 (1968)
Male rats (body weight between 70 and 90 grams) received an intraperitoneal Nembutal anesthesia (dose: 50 to 60 mg/kg). To avoid hypothermia, they were positioned on a heated test table (about 37° C.). The respiratory passage was held free by insertion of a tracheal cannula.
After a transverse abdominal incision was made, an intestinal loop was exposed and fixed, and a vein, with a diameter of about 300 μ was prepared. A monopolar platinum electrode embedded in glass and having a tip diameter of about 100μ was applied to the vein as an irritating cathode. The indifferent electrode was applied to the same vessel opposite the cathode. The irritation was provoked by 150 volts of direct current for a period of 100 milliseconds. After the irritation, the area of observation was continuously rinsed with warm (37° C.) physiological salt solution.
The formation and growth of the thrombosis was followed under a binocular microscope over a time period of 20 minutes. During the entire period of observation, the percentage of the vessel volume closed by the thrombosis was estimated at different time intervals.
Five animals per dose were used, and the results were averaged.
In the test compound experiments, the average size of the thrombosis in the treated animal group was compared with that of an untreated animal group. The result was given as "percentage reduction of the average thrombosis size." The following table contains the values obtained.

[6] = ADP-induced (about 1×10^-6 mol/l), read-out: EC50 (50% inhibition of thrombocyte aggregation), ADP
[7] = collagen-induced, read-out: EC50 (50% inhibition of thrombocyte aggregation), Collagen

| Compound | Percentage of Deceased Animals ([1]; 2 mg/kg p.o.) [%] | Percentage of Deceased Animals ([1]; 6 mg/kg p.o.) [%] | % Reduction of the Number of Thrombocytes ([2]; dose 2 mg/kg) [%] | % Reduction of the Number of Thrombocytes ([2]; dose 4 mg/kg) [%] | % Reduction of the Number of Thrombocytes ([2]; dose 8 mg/kg) [%] | change in vivo at 10 mg/kg (conscious mice) [%] | activation at 10 µg/mL (auricles (rat heart)) [%] | EC50 [3, 6] [nM] | EC50 [3, 7] [nM] | IC50 [4] [nM] | animals died (acute toxicity per os) (mice) | LD50 at 336 h (Acute toxicity, oral) [mg/kg] | Percentage Reduction of the Average Thrombosis Size [5] [%] | % Reduction of the Number of Thrombocytes ([2]; dose 6 mg/kg) [%] | % Reduction of the Number of Thrombocytes ([2]; dose 18 mg/kg) [%] |
| --- | --- | --- | --- | --- | --- | --- | --- | --- | --- | --- | --- | --- | --- | --- | --- |
| O=c1ccc2cc(OCCCCS(=O)(=O)c3ccccn3)ccc2[nH]1 [T, 6-[4-(2-Pyridyl-sulfonyl)-butoxy]-carbostyril] | 23 | 6.7 | 29 | 15 | 1.1 | 5 | 32 | 6000 | 100 | 1000 | 0 out of 10 animals | > 1000 | 29 |  |  |
| O=C1CCc2cc(OCCCC[S+]([O-])c3ccc(Cl)c(Cl)c3)ccc2N1 (stereo not shown) [U, 6-[4-(3,4-Dichlorophenyl-sulfinyl)-butoxy]-3,4-dihydro-carbostyril] | 40 | 13 | 34 |  |  | 33 |  | 15000 | 4000 | 270 | 0 out of 10 animals | > 1000 | 32 | 20.8 | 1.1 |
